This note sets out measurements from patent US20230067666A1, “METHOD FOR PREPARING COUMARIN COMPOUNDS SUBSTITUTED BY AMIDOALKYL AT 3-POSITION, THE PRODUCTS AND RELATED INTERMEDIATES THEREOF” (Fosun Orinove PharmaTech, Inc., priority 2019, published 2023).

SMILES strings stand for the structures. “And” between values parts separate entries of the source, which are not always exact repeats. Identical values can stand only once.

What all share (assay type): physicochemical
A short description of series [1]: particle size distribution (PSD) test. The procedure: In one embodiment, the particle size distribution (PSD) of the crystal form I is determined using a Malvern Mastersizer 2000. The parameters used may be: pump speed: 2500 rpm; dispersant volume: 800 mL; dispersant: water; dispersion medium: 1% Tween 80. Crystal form I is a granular crystal, and the particle size is 50-100 μm observed under a microscope (Nikon Eclipse LV100POL). The particle size distribution (PSD) of the crystal form I was determined using a Malvern Mastersizer 2000. Pump speed: 2500 rpm; Dispersant volume: 800 mL; Shielding degree: 10%-20%; Dispersant: water; Dispersion medium: 1% Tween 80; Background measurement: 12s; Sample measurement: 12s; Measurement cycle: 3.

A short description of series [2]: dynamic vapor sorption (DVS) test. Conditions: for hygroscopicity (result in words): DVS. An excerpt:
Dynamic Vapor Sorption (DVS) is a common method to investigate the moisture adsorption of drugs, excipients or packaging materials through a dynamically accelerated moisture adsorption process. The moisture adsorption isotherm is usually used to describe the degree of correlation between the moisture content of the sample and the relative humidity during the moisture adsorption process of the sample. DVS patterns can be measured, for example, on a model IGAsorp instrument. In one embodiment, the dynamic vapor sorption pattern of the crystal form I is determined by the following method: DVS dynamic vapor sorption instrument: IGAsorp; temperature: 25° C.; temperature stability: 0.1° C./min; carrier gas: nitrogen; flow rate: 250 mL/min; scanning: 2; minimum time: 30 min; maximum time: 2 hours; upper waiting limit: 98%; humidity gradient: adsorption: 0, 10, 20, 30, 40, 50, 60, 70, 80, 90; desorption: 80, 70, 60, 50, 40, 30, 20, 10, 0. DVS Dynamic Vapor Sorption Apparatus: IGAsorb, the temperature is 25° C., the temperature stability: 0.1° C./min, the carrier gas is nitrogen, the flow rate is 250 mL/min, scanning: 2, the minimum time is 30 min, the maximum time is 2 hours, the upper waiting limit is 98%, humidity gradient: adsorption: 0, 10, 20, 30, 40, 50, 60, 70, 80, 90; desorption: 80, 70, 60, 50, 40, 30, 20, 10, 0.

Series [3] can be described thus: crystal form I stability test (HPLC purity and XRPD after storage). Conditions: for chemical and physical stability (result in words): 40° C./75% RH and 60° C. for 14 days, HPLC purity and XRPD. The procedure:
X-ray powder diffractometer: Bruker D8 advance X, the radiation source is Cu-Ku, the scanning range of the test is 3° (2θ)˜40° (2θ), the scanning step size is 0.02° (2θ), and the scanning rate is 0.3 sec/step. HPLC (purity determination): Waters Acquity Arc liquid chromatography system or any equivalent; Column: EclipsexDB C18, 4.6×150 mm, 3.5 μm, or any equivalent; Column temperature: 30° C.; detection wavelength: 210 nm; mobile phase A: 0.05% trifluoroacetic acid aqueous solution; mobile phase B: 0.05% trifluoroacetic acid acetonitrile solution; concentration gradient running time: 20 minutes. Two samples of the crystal form I were placed under the conditions of 40° C./75% relative humidity (RH), and the temperature in the oven was 60° C. (with humidity not controlled) for 14 days.

Series [4] in a line: thermogravimetric analysis (TGA) test. Conditions: heated to 200° C. An excerpt: Thermogravimetric analysis (TGA) is a common method for determining the thermal stability of compounds. Herein, TGA is also used to determine the hydration state of a compound. The rate of temperature rise during the test have a certain impact on the pattern. For example, an excessively high rate of temperature rise is not conducive to the detection of intermediate products. TGA patterns can be measured, for example, on a model TA TGA Q500 instrument. In one embodiment, the thermogravimetric analysis pattern of the crystal form I is determined by the following method: TGA thermogravimetric analyzer: TA TGA Q500; temperature range: room temperature ˜350° C.; scanning rate: 10° C./min; protective gas: nitrogen; flow rate: 40 mL/min (balance) or […] (sample). TGA Thermogravimetric Analyzer: TA TGA Q500, temperature range is from room temperature to 350° C., scanning rate is 10° C./min, the protective gas is nitrogen, and the flow rate is 40 mL/min (balance) or 60 mL/min (sample).

The nature of series [5]: test of stability against mechanical treatment (grinding, XRPD). To be noted: ground in a mortar for 2 min and 5 min. The procedure: In one embodiment, the stability of the crystal form I against mechanical treatment is determined by the following method: the crystal form I is placed in a mortar, ground for 2 min and 5 min respectively, and XRPD detection is carried out to analyze the solid after grinding. The crystal form I was placed in a mortar, ground for 2 min and 5 min, respectively, and XRPD detection was carried out to analyze the solid after grinding.

Series [6] is described as follows: powder properties (bulk density, tap density, Carr index, angle of repose).
The mark [7] stands for this setting: Malvern Mastersizer 2000, dispersant water, 1% Tween 80.

With `COc1cc2c(C)c(CC(=O)N3CCOCC3)c(=O)oc2c(C=O)c1O` [crystal form I], in series [1] (setting [7]), the “D(0.1)” value is reported as 67.1 μm. The “D(0.5)” value in series [1] (setting [7]) is given as 115.5 μm. Further, the “D(0.9)” value in series [1] (setting [7]) stood at 206.4 μm. Moreover, the “particle size observed under a microscope” value in series [1] (Nikon Eclipse LV100POL) is given as 50-100 μm. Moreover, the “hygroscopicity (result in words)” value is listed as “only slightly hygroscopic” in series [2] (25° C.) and “slightly hygroscopic” in series [2] (25° C., listed as Orin1001 crystal form I). For the same compound, in series [2] (XRPD before and after DVS), the “crystal form after DVS measurement (XRPD)” value is reported as “did not change”. Further, in series [2] (after equilibration at 90% relative humidity, 25° C.), the “weight gain (DVS)” value worked out at 0.34%. Besides, the “chemical and physical stability (result in words)” value is “good chemical and physical stability” in series [3]; “excellent stability” in series [3] (listed as Orin1001 crystal form I). In addition, the “HPLC purity: peak area %” value in series [3] (40° C./75% RH, the 7th day) was 99.62% and 99.54%; in series [3] (40° C./75% RH, the 14th day) it was 99.54% and 99.56%; in series [3] (60° C. (in oven), humidity not controlled, the 7th day) it was 99.64% and 99.58%; in series [3] (60° C. (in oven), humidity not controlled, the 14th day), 99.52% and 99.54%; in series [3] (TO column of the 7th day table), 99.60% and 99.58%; in series [3] (TO column of the 14th day table), 99.53% and 99.54%. Moreover, the “weight loss (TGA)” value in series [4] is “about 0.017%”. In addition, the “crystal form after grinding (XRPD)” value in series [5] is reported as “the crystal form does not change”. Besides, in series [6], the Carr index is recorded as 20%. Moreover, in series [6], the angle of repose amounted to 30.6 °. In series [6], this compound showed a bulk density of 0.72 g/mL. In addition, in series [6], the “fluidity (result in words)” value is on record as “very good”. Moreover, the tap density in series [6] was found to be 0.90 g/mL.
